Tests used:
Yeast = Yeast cell count and yeast cell viability, laboratory treatment of yeast cream and fermentation; type: cell-based; conditions: for viability at 50 µg/mL / viability at 50 ppm / viability at 60 ppm: Saccharomyces cerevisiae
Method: (§1) Bacterial and yeast cell counts, yeast cell viability and yeast flocculation were determined as described in A. J. Oliveira et al., Curso de treinamento em microbiologia, Piracicaba: FERMENTEC and ESALQ, 1996 and in A. J. Oliveira et al., Métodos para o controle microbiológico na produção de açúcar e álcool, Piracicaba: FERMENTEC, FEALQ and ESALQ, 1996. Bacterial infection rates were calculated as the ratio of the rod bacteria cell count and the yeast cell count.
(§2) The examples were carried out with a yeast cream obtained by separating yeast from a fermented sugar cane mush from a sugar cane ethanol production mill operating with batch fermentation and yeast recycle. The yeast cream was diluted with water to a yeast cell content of about 24% by weight and the pH of the diluted yeast cream was adjusted to a value of 1.8 by adding sulfuric acid.
(§3) Then 322 ml of acidified diluted yeast cream were placed in a vessel and 678 ml of cane must having a pH of 6.2 were added with mixing in 5 portions with 1 h intervals between additions. Fermentation of the cane must with the acidified diluted yeast cream was carried out at 33° C. for 21 h. The final pH of the fermented mash was 4.8.
(§4) In example 2, equilibrium peroxyacetic acid PERACLEAN® 15 of Evonik was added to the acidified diluted yeast cream in an amount of 50 mg/l and the resulting treated yeast concentrate was kept at 30° C. for 1.7 hours before it was analyzed microbiologically. Thereafter, fermentation was carried out as in example 1.
(§5) Examples 1 and 2 were repeated without adding peroxyacetic acid in example 3 and with addition of equilibrium peroxyacetic acid PERACLEAN® 15 in an amount of 60 mg/l peroxyacetic acid in example 4. The treated yeast cream was kept at 30° C. for 2 hours before it was analyzed microbiologically and fermentation was started.
(§6) The examples were carried out with a yeast cream obtained by separating yeast from a fermented sugar cane mush from a sugar cane ethanol production mill that operates with fed-batch fermentation and yeast recycle. The yeast cream was diluted with water to a yeast cell content of about 27% by weight. The pH of the diluted yeast cream was 4.0.
(§7) In example 6, equilibrium peroxyacetic acid PERACLEAN® 15 of Evonik was added to the diluted yeast cream in an amount of 50 mg/l and the resulting treated yeast concentrate was kept at 30° C. for 2.3 hours before it was analyzed microbiologically.
(§8) In example 8, the pH of the diluted yeast cream was adjusted as in example 7, equilibrium peroxyacetic acid PERACLEAN® 15 of Evonik was added to the acidified diluted yeast cream in an amount of 50 mg/l and the resulting treated yeast concentrate was kept at 30° C. for 2.0 hours before it was analyzed microbiologically.

Rod bacteria = Rod bacteria cell count and infection rate, laboratory treatment of yeast cream and fermentation; type: cell-based
Method: as §1, §2, §3, §4, §5, §6, §7, §8

[1] = Example 2, 50 ppm, pH 1.8, fermented mash after 21 h
[2] = Example 2, 50 ppm, pH 1.8, treated yeast concentrate, 30° C. 1.7 hours
[3] = Example 4, 60 ppm, pH 1.8, fermented mash after 19 h
[4] = Example 4, 60 ppm, pH 1.8, treated yeast concentrate, 30° C. 2 hours
[5] = Example 6, 50 mg/l, no pH adjustment (pH 4.17), treated yeast concentrate, 30° C. 2.3 hours
[6] = Example 8, 50 mg/l, pH adjusted to 2.0 with sulfuric acid (pH 2.40), treated yeast concentrate, 30° C. 2.0 hours
[7] = treatment of the yeast concentrate at pH 1.8 before using it for the fermentation

CC(=O)OO [peroxyacetic acid]
Yeast cells/ml (Yeast; [1]): 230*10^6 cells/ml
Yeast cells/ml (Yeast; [2]): 550*10^6 cells/ml
Yeast cells/ml (Yeast; [3]): 180*10^6 cells/ml
Yeast cells/ml (Yeast; [4]): 710*10^6 cells/ml
Yeast cells/ml (Yeast; [5]): 820*10^6 cells/ml
Yeast cells/ml (Yeast; [6]): 830*10^6 cells/ml
viability at 50 µg/mL (Yeast; pH 2.4, Example 8, 50 mg/l, pH adjusted to 2.0 with sulfuric acid (pH 2.40), treated yeast concentrate, 30° C. 2.0 hours): 88%
viability at 50 ppm (Yeast; [1]): 81%
viability at 50 ppm (Yeast; [2]): 73%
viability at 60 ppm (Yeast; [3]): 80%
viability at 60 ppm (Yeast; [4]): 83%
viability at 50 µg/mL (Yeast; [5]): 86%
yeast viability in the fermentation (Yeast; [7]): does not affect yeast viability
Infection rate in % (Rod bacteria; [1]): 2.6%
Rod bacteria cells/ml (Rod bacteria; [1]): 6.1*10^6 cells/ml
Infection rate in % (Rod bacteria; [2]): 0.5%
Rod bacteria cells/ml (Rod bacteria; [2]): 2.9*10^6 cells/ml
Infection rate in % (Rod bacteria; [3]): 0.1%
Rod bacteria cells/ml (Rod bacteria; [3]): 0.22*10^6 cells/ml
Infection rate in % (Rod bacteria; [4]): 0.3%
Rod bacteria cells/ml (Rod bacteria; [4]): 1.8*10^6 cells/ml
Infection rate in % (Rod bacteria; [5]): 8.3%
Rod bacteria cells/ml (Rod bacteria; [5]): 68*10^6 cells/ml
Infection rate in % (Rod bacteria; [6]): 1.7%
Rod bacteria cells/ml (Rod bacteria; [6]): 14*10^6 cells/ml
effectiveness of treatment of the yeast concentrate against bacterial contamination (Rod bacteria; pH not adjusted to the claimed range by addition of acid (table 5)): ineffective
combined effect of pH adjustment with mineral acid and peroxyacetic acid addition (Rod bacteria; table 5, Examples 5 to 8): synergistic effect
bacterial contamination of the fermented mash (Rod bacteria; [7]): effective in preventing bacterial contamination
